The source of these data is patent US9044015B2, “Heterocyclic compounds as pesticides” (Bayer CropScience AG, priority 2010, dated 2015).

Data set [1] can be described thus: Determination of the log P values (formic acid method). The procedure: 1) Description of Method for Determination of the log P Values (Formic Aid Method)
Eluents for determination in the acidic range (pH 3.4):
Eluent A: acetonitrile+1 ml of formic acid/liter. Eluent B: water+0.9 ml of formic acid/liter.
The lambda max values were determined in the maxima of the chromatographic signals using the UV spectra from 200 nm to 400 nm.

The subject of a further data set is Myzus persicae. Put plainly: Myzus test (spray treatment). It is filed as in vivo. The note with it: foliar, application rate 500 g/ha, sprayed Chinese cabbage leaf discs, all stages of green peach aphid, read-out: efficacy in % (aphids killed). The procedure:
Solvent 78 parts by weight of acetone • • 1.5 parts by weight of dimethylformamide
Emulsifier: 0.5 part by weight of alkylaryl polyglycol ether
To prepare an appropriate active ingredient preparation, 1 part by weight of active ingredient is mixed with the stated amounts of solvent and emulsifier, and the concentrate is diluted with emulsifier-containing water to the desired concentration.

Setting [2] is: reverse-phase C18 HPLC column, pH 3.4, logP (HCOOH), final compounds table, HPLC reverse-phase C18, acidic range pH 3.4, 55° C.
The mark [3] stands for this setting: reverse-phase C18 HPLC column, pH 3.4, log P (HCOOH), preparation examples, HPLC-MS.

As usually defined, the chromatographic logP is lipophilicity estimated from chromatographic retention. A higher chromatographic logP goes with higher lipophilicity. `O=C(NS(=O)(=O)c1ccccc1)c1cccc(-c2cnn(-c3cncnc3)c2)n1` [Compound 23] gave a chromatographic logP in data set [1] (setting [2]) of 2.24. The pest or weed control at 500 g/ha with Myzus persicae was found to be 90%.

Take `CS(=O)(=O)NC(=O)c1cccc(-c2cnn(-c3cccnc3)c2)n1` [Compound 24]: the chromatographic logP in data set [1] (pH 3.4, logP (HCOOH)) is 1.48. The pest or weed control at 500 g/ha with Myzus persicae was determined as 100%.

Regarding `CCS(=O)(=O)NC(=O)c1cccc(-c2cnn(-c3cccnc3)c2)n1` [Compound 25], the chromatographic logP in data set [1] (pH 3.4, logP (HCOOH)) was found to be 1.77. Moreover, the pest or weed control at 500 g/ha in the data set on Myzus persicae worked out at 100%.

In the case of `CCS(=O)(=O)NC(=O)c1cccc(-c2cnn(-c3cncc(F)c3)c2)n1` [Compound 26], the chromatographic logP in data set [1] (pH 3.4, logP (HCOOH)) came out at 2.21. In addition, the pest or weed control at 500 g/ha with Myzus persicae was determined as 100%.

Compound `CN(C)S(=O)(=O)NC(=O)c1cccc(-c2cnn(-c3cccnc3)c2)n1` [Compound 27] came in with a chromatographic logP in data set [1] (setting [2]) of 1.96. Moreover, the pest or weed control at 500 g/ha in the data set with Myzus persicae is 100%.

With `O=C(NS(=O)(=O)C1CC1)c1cccc(-c2cnn(-c3cncnc3)c2)n1` [Compound 28], the chromatographic logP in data set [1] (pH 3.4, logP (HCOOH)) was 1.76. Besides, the pest or weed control at 500 g/ha in the data set with Myzus persicae amounted to 80%.

In data set [1] (setting [2]), `O=C(NS(=O)(=O)C1CC1)c1cccc(-c2cnn(-c3cncc(F)c3)c2)n1` [Compound 29] registered a chromatographic logP of 2.35. For the same compound, in the data set with Myzus persicae, the pest or weed control at 500 g/ha turned out to be 100%.

In turn, `O=C(NS(=O)(=O)C1CC1)c1cccc(-c2cnn(-c3cccnc3)c2)n1` [Compound 30] gave a chromatographic logP in data set [1] (pH 3.4, logP (HCOOH)) of 1.85. The pest or weed control at 500 g/ha in the data set on Myzus persicae was found to be 100%.

As to `O=C(NS(=O)(=O)c1ccccc1)c1cccc(-c2cnn(-c3cncc(F)c3)c2)n1` [Compound 31], in data set [1] (pH 3.4, logP (HCOOH)), the chromatographic logP was found to be 2.82. Further, in the data set on Myzus persicae, the pest or weed control at 500 g/ha was found to be 100%.

For `O=C(NS(=O)(=O)c1ccccc1)c1cccc(-c2cnn(-c3cccnc3)c2)n1` [Compound 32], in data set [1] (setting [2]), the chromatographic logP was determined as 2.26. In the data set with Myzus persicae, the pest or weed control at 500 g/ha worked out at 90%.

In data set [1] (setting [2]), `O=C(NS(=O)(=O)Cc1ccccc1)c1cccc(-c2cnn(-c3cncc(F)c3)c2)n1` [Compound 33] showed a chromatographic logP of 2.89. Besides, the pest or weed control at 500 g/ha with Myzus persicae is 100%.

In the case of `O=C(NS(=O)(=O)Cc1ccccc1)c1cccc(-c2cnn(-c3cncnc3)c2)n1` [Compound 34], in data set [1] (setting [2]), the chromatographic logP turned out to be 2.28. In addition, the pest or weed control at 500 g/ha in the data set with Myzus persicae stood at 90%.

As for `O=C(NS(=O)(=O)Cc1ccccc1)c1cccc(-c2cnn(-c3cccnc3)c2)n1` [Compound 35], the chromatographic logP in data set [1] (pH 3.4, logP (HCOOH)) was found to be 2.44. Besides, the pest or weed control at 500 g/ha with Myzus persicae worked out at 100%.

As for `CS(=O)(=O)NC(=O)c1csc(-c2cnn(-c3cccnc3)c2)n1` [Compound 36, N-(Methylsulphonyl)-2-[1-(pyridin-3-yl)-1H-pyrazol-4-yl]-1,3-thiazole-4-carboxamide], the chromatographic logP in data set [1] (pH 3.4, log P (HCOOH)) is 1.25; in data set [1] (pH 3.4, logP (HCOOH)), 1.25. The pest or weed control at 500 g/ha with Myzus persicae turned out to be 100%.

`CS(=O)(=O)NC(=O)c1csc(-c2cnn(-c3cncc(F)c3)c2)n1` [Compound 37] came in with a chromatographic logP in data set [1] (pH 3.4, logP (HCOOH)) of 1.66. Moreover, the pest or weed control at 500 g/ha in the data set on Myzus persicae worked out at 90%.

`CCN(CC)S(=O)(=O)NC(=O)c1cccc(-c2cnn(-c3cncnc3)c2)n1` [Compound 38] returned a chromatographic logP in data set [1] (pH 3.4, logP (HCOOH)) of 2.36. Further, the pest or weed control at 500 g/ha in the data set on Myzus persicae came out at 90%.

Turning to `CCN(CC)S(=O)(=O)NC(=O)c1cccc(-c2cnn(-c3cncc(F)c3)c2)n1` [Compound 39], the chromatographic logP in data set [1] (pH 3.4, logP (HCOOH)) turned out to be 2.98. In addition, the pest or weed control at 500 g/ha in the data set on Myzus persicae stood at 100%.

Take `CCN(CC)S(=O)(=O)NC(=O)c1cccc(-c2cnn(-c3cccnc3)c2)n1` [Compound 40]: in data set [1] (pH 3.4, logP (HCOOH)), the chromatographic logP came to 2.49. The pest or weed control at 500 g/ha with Myzus persicae stood at 100%.

Consider `CC(=O)NS(=O)(=O)c1cccc(-c2cnn(-c3cccnc3)c2)n1` [Compound 41, N-({6-[1-(Pyridin-3-yl)-1H-pyrazol-4-yl]pyridin-2-yl}sulphonyl)acetamide], for which the chromatographic logP in data set [1] (pH 3.4, log P (HCOOH)) amounted to 1.17; in data set [1] (pH 3.4, logP (HCOOH)), 1.17. The pest or weed control at 500 g/ha in the data set on Myzus persicae came out at 100%.

On to `CCC(=O)NS(=O)(=O)c1cccc(-c2cnn(-c3cccnc3)c2)n1` [Compound 42], for which the chromatographic logP in data set [1] (setting [2]) is 1.43. For the same compound, the pest or weed control at 500 g/ha with Myzus persicae stood at 100%.

On to `CS(=O)(=O)NC(=O)c1nc(-c2cnn(-c3cccnc3)c2)cs1` [Compound 45], for which the chromatographic logP in data set [1] (pH 3.4, logP (HCOOH)) was 1.16. Also, the pest or weed control at 500 g/ha in the data set with Myzus persicae was determined as 90%.

`CS(=O)(=O)NC(=O)c1nc(-c2cnn(-c3cncc(F)c3)c2)cs1` [Compound 46, 4-[1-(5-Fluoropyridin-3-yl)-1H-pyrazol-4-yl]-N-(methylsulphonyl)-1,3-thiazole-2-carboxamide]: the chromatographic logP in data set [1] (setting [3]) and in data set [1] (setting [2]) was 1.68 each time. In the data set on Myzus persicae, the pest or weed control at 500 g/ha stood at 100%.

In turn, `CS(=O)(=O)NC(=O)c1cccc(-c2cnc(-c3cncc(C#N)c3)s2)n1` [Compound 51] yielded a chromatographic logP in data set [1] (setting [2]) of 1.95. Besides, the pest or weed control at 500 g/ha with Myzus persicae was 100%.

On to `CN(C(=O)c1cccc(-c2cnc(-c3cncc(F)c3)s2)n1)S(C)(=O)=O` [Compound 52], for which, in data set [1] (setting [2]), the chromatographic logP is 2.27. The pest or weed control at 500 g/ha with Myzus persicae worked out at 100%.

With `CN(C)S(=O)(=O)NC(=O)c1cccc(-c2cnc(-c3cncc(F)c3)s2)n1` [Compound 53], the chromatographic logP in data set [1] (pH 3.4, logP (HCOOH)) is 2.54. Further, the pest or weed control at 500 g/ha in the data set on Myzus persicae is 100%.

For `O=C(NS(=O)(=O)N1CCCCC1)c1cccc(-c2cnc(-c3cncc(F)c3)s2)n1` [Compound 54], the chromatographic logP in data set [1] (setting [2]) came out at 3.29. Further, the pest or weed control at 500 g/ha with Myzus persicae came to 100%.

In data set [1] (setting [2]), `COCCS(=O)(=O)NC(=O)c1cccc(-c2cnc(-c3cncc(F)c3)s2)n1` [Compound 55] registered a chromatographic logP of 2.19. The pest or weed control at 500 g/ha in the data set on Myzus persicae was determined as 100%.

On to `O=C(NS(=O)(=O)CC(F)(F)F)c1cccc(-c2cnc(-c3cncc(F)c3)s2)n1` [Compound 57], for which, in data set [1] (pH 3.4, logP (HCOOH)), the chromatographic logP was 2.58. For the same compound, in the data set with Myzus persicae, the pest or weed control at 500 g/ha amounted to 100%.

In data set [1] (setting [2]), `Cc1noc(C)c1S(=O)(=O)NC(=O)c1cccc(-c2cnc(-c3cncc(F)c3)s2)n1` [Compound 58] registered a chromatographic logP of 3. The pest or weed control at 500 g/ha in the data set on Myzus persicae stood at 100%.

Consider `Cc1nc(Cl)sc1S(=O)(=O)NC(=O)c1cccc(-c2cnc(-c3cncc(F)c3)s2)n1` [Compound 59], for which the chromatographic logP in data set [1] (setting [2]) came out at 3.41. Further, the pest or weed control at 500 g/ha with Myzus persicae stood at 100%.

For the compound `CC(C)N(C)S(=O)(=O)NC(=O)c1cccc(-c2cnc(-c3cncc(F)c3)s2)n1` [Compound 60], the chromatographic logP in data set [1] (pH 3.4, logP (HCOOH)) came out at 3.09. For the same compound, the pest or weed control at 500 g/ha in the data set with Myzus persicae is 100%.

As for `CC(C1CC1)N(C)S(=O)(=O)NC(=O)c1cccc(-c2cnc(-c3cncc(F)c3)s2)n1` (stereo not drawn) [Compound 61], the chromatographic logP in data set [1] (pH 3.4, logP (HCOOH)) amounted to 3.47. For the same compound, the pest or weed control at 500 g/ha with Myzus persicae worked out at 100%.

Compound `CN(C)S(=O)(=O)NC(=O)c1cccc(-c2cnc(-c3cncnc3)s2)n1` [Compound 62] yielded a chromatographic logP in data set [1] (setting [2]) of 1.9. Moreover, the pest or weed control at 500 g/ha in the data set on Myzus persicae was 80%.

Regarding `Cc1nc(-c2cncc(F)c2)sc1-c1cc(C(=O)NS(C)(=O)=O)n(C)n1` [Compound 63, 3-[2-(5-Fluoropyridin-3-yl)-4-methyl-1,3-thiazol-5-yl]-1-methyl-N-(methylsulphonyl)-1H-pyrazole-5-carboxamide], the chromatographic logP in data set [1] (setting [3]) and in data set [1] (setting [2]) was 2.04 each time. Also, the pest or weed control at 500 g/ha in the data set on Myzus persicae was 80%.
